Source: patent US20170239289A1, “TREATMENT OF INFLAMMATION, RESPIRATORY TRACT INFECTIONS AND CYSTIC FIBROSIS” (Advanced Inhalation Therapies (AIT) Ltd., priority 2014, published 2017)
“Also recorded” adds a separate entry of the source.

Experiments:
C-reactive protein (CRP) = assay: Example 1: CRP levels in CF subjects treated with 160 ppm NO; assay type: in vivo, human; details: three subjects with baseline CRP greater than 5 mg/L
Experimental: NO was administered via inhalation to nine clinically stable human subjects diagnosed with, or suffering from CF from two medical centers. Patients received three daily 30-minute treatments of 160 ppm NO with at least 3.5 hours between treatments, for 5 days per week over a two-weeks time period.
Preliminary efficacy measures included determination of microbial density in sputum and measurements of forced exhaled volume at 1 second (FEV1). Inflammation associated with C-reactive protein (CRP) levels was assessed as a secondary outcome measure. Other inflammation biomarkers, such as interleukins, were also monitored (data not shown).

[1] = tested on: human subjects diagnosed with cystic fibrosis; assay: Example 4: CF study, 160 ppm NO 30 min 3x daily for 10 treatment days; safety; assay type: in vivo
Experimental: (§1) In addition to their standard care, subjects were administered three 30-minute inhalations per day of 160 ppm NO (with O2/air) for 10 working days (i.e., 5 days on treatment, 2 days off treatment, 5 days on treatment, for a total of 10 treatment days and 30 inhalations).
A minimum time interval of 3.5 hours from the end of one treatment to the beginning of the next treatment was required.
As a safety measure, during NO administration, human subjects' MetHb and 02 saturation levels in the blood were monitored utilizing a commercial “off the shelf” co-oxymeter (Masimo Corporation Model RAD-57/RAD 87).
In the event of MetHb greater than 5% or O2 saturation less than or equal to 88%, treatment was temporarily discontinued, and measure repeated 30 minutes later. If value(s) had returned to above the safety threshold, the next inhalation was started according to protocol. In any case of a second episode of MeHb greater than 5%, study treatment was to be permanently discontinued.
Primary Endpoints—Safety and Tolerability: • Safety • Determine the MetHb levels during treatment with inhaled NO • Determine other AEs associated with inhaled NO • Tolerability • Proportion of subjects (%) who prematurely discontinued the study or study treatment for any reason • Proportion of subjects (%) who prematurely discontinued the study treatment due to AEs or SAEs • Proportion of subjects (%) who prematurely discontinued the study treatment due to AEs or SAEs associated with inhaled NO
All measured variables and derived parameters were listed individually and tabulated by descriptive statistics. For categorical variables, summary tables were provided giving sample size, absolute and relative frequency. For continuous variables, summary tables were provided giving sample size, arithmetic mean, SD, median, minimum and maximum and 95% CI for means of variables. For the ITT cohort, the LOCF approach was applied, when deemed appropriate, to account for missing data at or prior to study termination. Methemoglobin was summarized in appropriate descriptive tables. The percent of subjects with MetHb level greater than 5% was calculated per time point. Changes from baseline in MetHb levels were analyzed using Signed rank test for two means. Laboratory results were summarized in appropriate tables by time. Changes from baseline were calculated and presented as well.

Total P. aeruginosa = assay: Example 4: bacterial and fungal sputum load; assay type: in vivo
Experimental: as §1
(§2) Secondary Endpoints—Efficacy: • Comparison of FEV1 improvement before and after NO treatment Observational Endpoints: • To determine the reduction in bacterial and fungal sputum load during each week of NO treatment compared to bacterial sputum load before NO treatment • Assess the improvement of lung function indices during and after NO intermittent inhalation treatment as determined by spirometry (i.e., FVC, FEV1, FEV1/FVC, forced expiratory flow 25% to 75% (FEF 25-75)) • Evaluate C-reactive protein (CRP) levels over time • Number of subjects with study drug related bleeding at any time point
(§3) Results of the bacterial and fungal sputum load analysis were highly variable, and due to limitations of the sampling and testing technique, must be interpreted with caution. Microbiology results were recorded from Day 1 to end of follow-up, for all samples taken during the study. In order for NO therapy to be efficient, a minimal exposure of the microbial population to NO for the whole duration of the study is required. […] Thus, data was analyzed only for cultures with positive results on Day 1. Furthermore, samples from 2 subjects (SO-01 and SO-02) were not analyzed by the central laboratory. A summary of the bacterial and fungal sputum results at Day 1 and Day 9 is presented according to subject in Table 18.

mucoid P. aeruginosa = assay: Example 4: bacterial and fungal sputum load; assay type: in vivo
Experimental: as §1, §2, §3

Aspergillus fumigatus = assay: Example 4: bacterial and fungal sputum load; assay type: in vivo
Experimental: as §1, §2, §3

Achromobacter spp. = assay: Example 4: bacterial and fungal sputum load; assay type: in vivo
Experimental: as §1, §2, §3

Non-Mucoid P. aeruginosa = assay: Example 4: bacterial and fungal sputum load; assay type: in vivo
Experimental: as §1, §2, §3

[N]=O [NO, nitric oxide]
reduction in CRP levels after treatment (C-reactive protein (CRP)): 40-60% | AEs of MetHb elevation greater than 5% or NO2 elevation greater than 5 ppm ([1]; N=9): no AEs | AEs possibly or probably related to treatment, % of subjects ([1]; N=9): 22.2% | Adverse events reported by, % of subjects ([1]; N=9): 55.5% | Severe or serious AEs ([1]; N=9): no severe or serious AEs | maximum MetHb level ([1]; N=9): 4.6% | total AEs reported ([1]; N=9, 20 events in a single subject (SC-01)): 31 | Subjects with MetHb greater than 5% ([1]; entire study treatment period, N=9): no subjects | cases of haemoptysis ([1]; in 2 subjects, all events mild): 7 cases | Cumulative effect on MetHb levels ([1]; over the study treatment period): no “cumulative” effect; also recorded: no cumulative effect | Total P. aeruginosa (central lab only), % change from Day 1 to Day 9 (Total P. aeruginosa; Subject SC-01): −3.7% | Total P. aeruginosa (including Soroka lab), % change from Day 1 to Day 9 (Total P. aeruginosa; Subject SC-01): −3.7% | Total P. aeruginosa (central lab only) sputum load (Total P. aeruginosa; Subject SC-01, Day 1): 2,700 CFU/mL × 10^−4 | Total P. aeruginosa (including Soroka lab) sputum load (Total P. aeruginosa; Subject SC-01, Day 1): 2,700 CFU/mL × 10^−4 | Total P. aeruginosa (central lab only) sputum load (Total P. aeruginosa; Subject SC-01, Day 9): 2,600 CFU/mL × 10^−4 | Total P. aeruginosa (including Soroka lab) sputum load (Total P. aeruginosa; Subject SC-01, Day 9): 2,600 CFU/mL × 10^−4 | Total P. aeruginosa (central lab only), % change from Day 1 to Day 9 (Total P. aeruginosa; Subject SC-02): +33.1% | Total P. aeruginosa (including Soroka lab), % change from Day 1 to Day 9 (Total P. aeruginosa; Subject SC-02): +33.1% | Total P. aeruginosa (central lab only) sputum load (Total P. aeruginosa; Subject SC-02, Day 1): 496 CFU/mL × 10^−4 | Total P. aeruginosa (including Soroka lab) sputum load (Total P. aeruginosa; Subject SC-02, Day 1): 496 CFU/mL × 10^−4 | Total P. aeruginosa (central lab only) sputum load (Total P. aeruginosa; Subject SC-02, Day 9): 660 CFU/mL × 10^−4 | Total P. aeruginosa (including Soroka lab) sputum load (Total P. aeruginosa; Subject SC-02, Day 9): 660 CFU/mL × 10^−4 | Total P. aeruginosa (central lab only), % change from Day 1 to Day 9 (Total P. aeruginosa; Subject SC-04): −57.9% | Total P. aeruginosa (including Soroka lab), % change from Day 1 to Day 9 (Total P. aeruginosa; Subject SC-04): −57.9% | Total P. aeruginosa (central lab only) sputum load (Total P. aeruginosa; Subject SC-04, Day 1): 80,000 CFU/mL × 10^−4 | Total P. aeruginosa (including Soroka lab) sputum load (Total P. aeruginosa; Subject SC-04, Day 1): 80,000 CFU/mL × 10^−4 | Total P. aeruginosa (central lab only) sputum load (Total P. aeruginosa; Subject SC-04, Day 9): 33,700 CFU/mL × 10^−4 | Total P. aeruginosa (including Soroka lab) sputum load (Total P. aeruginosa; Subject SC-04, Day 9): 33,700 CFU/mL × 10^−4 | Total P. aeruginosa (central lab only), % change from Day 1 to Day 9 (Total P. aeruginosa; Subject SC-05): −90.2% | Total P. aeruginosa (including Soroka lab), % change from Day 1 to Day 9 (Total P. aeruginosa; Subject SC-05): −90.2% | Total P. aeruginosa (central lab only) sputum load (Total P. aeruginosa; Subject SC-05, Day 1): 32,100 CFU/mL × 10^−4 | Total P. aeruginosa (including Soroka lab) sputum load (Total P. aeruginosa; Subject SC-05, Day 1): 32,100 CFU/mL × 10^−4 | Total P. aeruginosa (central lab only) sputum load (Total P. aeruginosa; Subject SC-05, Day 9): 3,140 CFU/mL × 10^−4 | Total P. aeruginosa (including Soroka lab) sputum load (Total P. aeruginosa; Subject SC-05, Day 9): 3,140 CFU/mL × 10^−4 | Total P. aeruginosa (including Soroka lab), % change from Day 1 to Day 9 (Total P. aeruginosa; Subject SO01): +611% | Total P. aeruginosa (including Soroka lab) sputum load (Total P. aeruginosa; Subject SO01, Day 1): 450 CFU/mL × 10^−4 | Total P. aeruginosa (including Soroka lab) sputum load (Total P. aeruginosa; Subject SO01, Day 9): 3,200 CFU/mL × 10^−4 | Total P. aeruginosa (including Soroka lab), % change from Day 1 to Day 9 (Total P. aeruginosa; Subject SO02): +250% | Total P. aeruginosa (including Soroka lab) sputum load (Total P. aeruginosa; Subject SO02, Day 1): 100 CFU/mL × 10^−4 | Total P. aeruginosa (including Soroka lab) sputum load (Total P. aeruginosa; Subject SO02, Day 9): 350 CFU/mL × 10^−4 | Mucoid P. aeruginosa, % change from Day 1 to Day 9 (mucoid P. aeruginosa; Subject SC-01): −3.7% | Mucoid P. aeruginosa sputum load (mucoid P. aeruginosa; Subject SC-01, Day 1): 2,700 CFU/mL × 10^−4 | Mucoid P. aeruginosa sputum load (mucoid P. aeruginosa; Subject SC-01, Day 9): 2,600 CFU/mL × 10^−4 | Mucoid P. aeruginosa, % change from Day 1 to Day 9 (mucoid P. aeruginosa; Subject SC-05): −99.9% | Mucoid P. aeruginosa sputum load (mucoid P. aeruginosa; Subject SC-05, Day 1): 29,000 CFU/mL × 10^−4 | Mucoid P. aeruginosa sputum load (mucoid P. aeruginosa; Subject SC-05, Day 9): 30.0 CFU/mL × 10^−4 | Aspergillus fumigatus, % change from Day 1 to Day 9 (Aspergillus fumigatus; Subject SC-03): −100.0% | Aspergillus fumigatus sputum load (Aspergillus fumigatus; Subject SC-03, Day 1): 2.00 CFU/mL × 10^−4 | Aspergillus fumigatus sputum load (Aspergillus fumigatus; Subject SC-03, Day 9): 0 CFU/mL × 10^−4 | Achromobacter spp., % change from Day 1 to Day 9 (Achromobacter spp.; Subject SC-03): −94.3% | Achromobacter spp. sputum load (Achromobacter spp.; Subject SC-03, Day 1): 44.1 CFU/mL × 10^−4 | Achromobacter spp. sputum load (Achromobacter spp.; Subject SC-03, Day 9): 2.50 CFU/mL × 10^−4 | Non-Mucoid P. aeruginosa, % change from Day 1 to Day 9 (Non-Mucoid P. aeruginosa; Subject SC-02): +33.1% | Non-Mucoid P. aeruginosa sputum load (Non-Mucoid P. aeruginosa; Subject SC-02, Day 1): 496 CFU/mL × 10^−4 | Non-Mucoid P. aeruginosa sputum load (Non-Mucoid P. aeruginosa; Subject SC-02, Day 9): 660 CFU/mL × 10^−4 | Non-Mucoid P. aeruginosa, % change from Day 1 to Day 9 (Non-Mucoid P. aeruginosa; Subject SC-04): −57.9% | Non-Mucoid P. aeruginosa sputum load (Non-Mucoid P. aeruginosa; Subject SC-04, Day 1): 80,000 CFU/mL × 10^−4 | Non-Mucoid P. aeruginosa sputum load (Non-Mucoid P. aeruginosa; Subject SC-04, Day 9): 33,700 CFU/mL × 10^−4 | Non-Mucoid P. aeruginosa, % change from Day 1 to Day 9 (Non-Mucoid P. aeruginosa; Subject SC-05): −89.3% | Non-Mucoid P. aeruginosa sputum load (Non-Mucoid P. aeruginosa; Subject SC-05, Day 1): 29,200 CFU/mL × 10^−4 | Non-Mucoid P. aeruginosa sputum load (Non-Mucoid P. aeruginosa; Subject SC-05, Day 9): 3,110 CFU/mL × 10^−4
